This note sets out measurements from US10160747B2, “Compounds and methods for kinase modulation, and indications therefor” (Plexxikon Inc., priority 2016, dated 2018).

Assay [1] has as its target T1, BA/F3-FLT3-ITD + D835Y (Homo sapiens, UniProt P36888, D835Y, cells depend on it, form not given).
T1 sequence (P36888 with tags, fused parts or gaps INS600HVDFREYEYD/D835Y): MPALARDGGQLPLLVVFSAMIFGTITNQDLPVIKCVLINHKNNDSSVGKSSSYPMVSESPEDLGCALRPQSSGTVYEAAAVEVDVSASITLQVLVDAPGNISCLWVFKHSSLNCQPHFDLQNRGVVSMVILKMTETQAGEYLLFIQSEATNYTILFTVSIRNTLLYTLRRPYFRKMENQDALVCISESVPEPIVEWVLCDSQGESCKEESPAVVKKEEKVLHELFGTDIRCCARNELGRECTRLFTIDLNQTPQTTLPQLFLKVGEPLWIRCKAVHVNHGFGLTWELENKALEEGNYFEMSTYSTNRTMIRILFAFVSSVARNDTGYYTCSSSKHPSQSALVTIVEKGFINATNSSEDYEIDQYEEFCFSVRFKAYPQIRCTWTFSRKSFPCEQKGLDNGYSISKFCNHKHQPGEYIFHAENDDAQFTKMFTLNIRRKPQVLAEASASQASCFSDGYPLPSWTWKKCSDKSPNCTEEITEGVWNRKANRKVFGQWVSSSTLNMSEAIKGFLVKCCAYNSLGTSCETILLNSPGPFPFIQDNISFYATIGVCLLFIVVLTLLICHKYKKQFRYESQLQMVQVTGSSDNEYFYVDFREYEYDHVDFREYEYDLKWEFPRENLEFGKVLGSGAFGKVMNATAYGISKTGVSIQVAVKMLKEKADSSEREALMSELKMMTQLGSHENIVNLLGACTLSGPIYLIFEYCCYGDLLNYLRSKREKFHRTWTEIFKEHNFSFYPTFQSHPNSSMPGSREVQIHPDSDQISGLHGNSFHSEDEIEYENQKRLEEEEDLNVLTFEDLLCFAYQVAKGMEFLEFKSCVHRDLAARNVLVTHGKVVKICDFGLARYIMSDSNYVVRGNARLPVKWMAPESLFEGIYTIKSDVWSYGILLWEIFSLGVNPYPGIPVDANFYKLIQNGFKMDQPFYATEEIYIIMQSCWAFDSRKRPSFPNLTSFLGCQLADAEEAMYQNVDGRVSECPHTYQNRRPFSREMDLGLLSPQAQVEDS
The experiment in a line: Engineered BA/F3 cell growth assay, FLT3 ITD/D835Y. In kind it is cell-based, murine. Particulars: 3 d growth. Summed up: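 Murine Ba/F3 cells transfected with full-length FLT3 ITD/D835Y, grown without IL-3 so growth depends on FLT3. Seeded at 1×10^4 cells/well, 8-point 1:3 series to 1 μM top (0.2% DMSO), 3 days at 37 °C. CellTiter-Glo luminescence (ATP) versus concentration gave IC50.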

Assay [2] relates to MOLM-14 D835Y (endogenous FLT3 ITD and transfected FLT3 D835Y). The experiment in a line: MOLM-14 D835Y cell proliferation assay (CellTiter-Glo). In kind it is cell-based. The following applies: Homo sapiens, MOLM-14, 72 h; 3 d growth, GMean. The method, boiled down: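 MOLM-14 derivatives carrying D835Y or F691L, selected under escalating AC220, were seeded at 1×10^4 cells/well and exposed to an 8-point 1:3 compound series (1 to 0.00046 μM, 0.2% DMSO final) for three days at 37° C., 5% CO2. CellTiter-Glo luminescence (ATP content) versus concentration gave IC50.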
Background: In ATP-based viability assays light output follows the ATP content of the culture.

SMILES strings stand for the structures.

Consider `Cc1cc(CC(=O)Nc2cccc(C(F)(F)F)c2)ccc1-c1cnc2[nH]c(-c3ccccc3)cc2c1` [Compound P-0002, 2-[3-methyl-4-(2-phenyl-1H-pyrrolo[2,3-b]pyridin-5-yl)phenyl]-N-[3-(trifluoromethyl)phenyl]acetamide], for which, in assay [1], the GI50 was in the range of 0.0001 to 10 µM.
For `O=C(Cc1ccc(-c2cnc(Nc3cnn(C(F)F)c3)nc2)c(F)c1)Nc1cc(C(F)(F)F)ccn1` [Compound P-0024, 2-[4-[2-[[1-(difluoromethyl)pyrazol-4-yl]amino]pyrimidin-5-yl]-3-fluoro-phenyl]-N-[4-(trifluoromethyl)-2-pyridyl]acetamide], in assay [1], the GI50 was in the range of 0.0001 to 10 µM. In assay [2], the half-inhibitory concentration (IC50) was in the range of 0.0001 to 10 µM.
In the case of `COc1ncc(NC(=O)Cc2ccc(-c3cnc(Nc4cn[nH]c4)nc3)cc2)cc1C(F)(F)F` [Compound P-0025, N-[6-methoxy-5-(trifluoromethyl)-3-pyridyl]-2-[4-[2-(1H-pyrazol-4-ylamino)pyrimidin-5-yl]phenyl]acetamide], the GI50 in assay [1] lay in the range of 0.0001 to 10 µM. In assay [2], the IC50 was 0.0001 to 10 µM.
As for `COc1ncc(NC(=O)Cc2ccc(-c3cnc(Nc4cn[nH]c4)nc3)cc2F)cc1C(F)(F)F` [Compound P-0026, 2-[2-fluoro-4-[2-(1H-pyrazol-4-ylamino)pyrimidin-5-yl]phenyl]-N-[6-methoxy-5-(trifluoromethyl)-3-pyridyl]acetamide], the GI50 in assay [1] was in the range of 0.0001 to 10 µM. Besides, in assay [2], the IC50 lay within 0.0001 to 10 µM.
With `Cc1ncc(NC(=O)Cc2ccc(-c3cnc(Nc4cn[nH]c4)nc3)cc2F)cc1C(F)(F)F` [Compound P-0027, 2-[2-fluoro-4-[2-(1H-pyrazol-4-ylamino)pyrimidin-5-yl]phenyl]-N-[6-methyl-5-(trifluoromethyl)-3-pyridyl]acetamide], the GI50 in assay [1] fell in the range of 0.0001 to 10 µM. Besides, the IC50 in assay [2] was in the range of 0.0001 to 10 µM.
In the case of `O=C(Cc1ccc(-c2cnc3[nH]cc(F)c3c2)cc1F)Nc1ccnc(C(F)(F)F)c1` [Compound P-0029, 2-[2-fluoro-4-(3-fluoro-1H-pyrrolo[2,3-b]pyridin-5-yl)phenyl]-N-[2-(trifluoromethyl)-4-pyridyl]acetamide], the concentration for 50% growth inhibition (GI50) in assay [1] lay in the range of 0.0001 to 10 µM.
For the molecule `O=C(Cc1ccc(-c2cnc3[nH]c(Cl)cc3c2)cc1F)Nc1ccnc(C(F)(F)F)c1` [Compound P-0030, 2-[4-(2-chloro-1H-pyrrolo[2,3-b]pyridin-5-yl)-2-fluoro-phenyl]-N-[2-(trifluoromethyl)-4-pyridyl]acetamide], the concentration for 50% growth inhibition (GI50) in assay [1] fell in the range of 0.0001 to 10 µM.
Consider `CC(=O)c1c[nH]c2ncc(-c3ccc(CC(=O)Nc4ccnc(C(F)(F)F)c4)c(F)c3)cc12` [Compound P-0031, 2-(4-(3-acetyl-1H-pyrrolo[2,3-b]pyridin-5-yl)-2-fluorophenyl)-N-(2-(trifluoromethyl)pyridin-4-yl)acetamide], for which the GI50 in assay [1] is 0.0001 to 10 µM. In assay [2], this molecule came in with an IC50 of 0.0001 to 10 µM.
In the case of `O=C(Cc1ccc(-c2cnc3[nH]cc(C(=O)C4CC4)c3c2)cc1F)Nc1ccnc(C(F)(F)F)c1` [Compound P-0032, 2-[4-[3-(cyclopropanecarbonyl)-1H-pyrrolo[2,3-b]pyridin-5-yl]-2-fluoro-phenyl]-N-[2-(trifluoromethyl)-4-pyridyl]acetamide], the GI50 in assay [1] was in the range of 0.0001 to 10 µM. In assay [2], this molecule showed an IC50 of 0.0001 to 10 µM.
With `O=C(Cc1ccc(-c2cnc(Nc3cnn4ccccc34)nc2)cc1F)Nc1ccnc(C(F)(F)F)c1` [Compound P-0033, 2-[2-fluoro-4-[2-(pyrazolo[1,5-a]pyridin-3-ylamino)pyrimidin-5-yl]phenyl]-N-[2-(trifluoromethyl)-4-pyridyl]acetamide], in assay [1], the GI50 was 0.0001 to 10 µM. This molecule came in with an IC50 in assay [2] of 0.0001 to 10 µM.
Turning to `COc1ncc(NC(=O)Cc2ccc(-c3cnc4[nH]cc(F)c4c3)cc2F)cc1C(F)(F)F` [Compound P-0034, 2-[2-fluoro-4-(3-fluoro-1H-pyrrolo[2,3-b]pyridin-5-yl)phenyl]-N-[6-methoxy-5-(trifluoromethyl)-3-pyridyl]acetamide], in assay [1], the GI50 lay within 0.0001 to 10 µM. In assay [2], the IC50 was in the range of 0.0001 to 10 µM.
`COc1ncc(NC(=O)Cc2ccc(-c3cnc4[nH]cc(C(C)=O)c4c3)cc2F)cc1C(F)(F)F` [Compound P-0035, 2-[4-(3-acetyl-1H-pyrrolo[2,3-b]pyridin-5-yl)-2-fluoro-phenyl]-N-[6-methoxy-5-(trifluoromethyl)-3-pyridyl]acetamide]: the GI50 in assay [1] fell in the range of 0.0001 to 10 µM. Besides, in assay [2], the IC50 was 0.0001 to 10 µM.
For `COc1ncc(NC(=O)Cc2ccc(-c3cnc4[nH]cc(C(=O)C5CC5)c4c3)cc2F)cc1C(F)(F)F` [Compound P-0036, 2-[4-[3-(cyclopropanecarbonyl)-1H-pyrrolo[2,3-b]pyridin-5-yl]-2-fluoro-phenyl]-N-[6-methoxy-5-(trifluoromethyl)-3-pyridyl]acetamide], in assay [1], the GI50 was 0.0001 to 10 µM. The molecule further came in with an IC50 in assay [2] of 0.0001 to 10 µM.
In the case of `COc1ncc(NC(=O)Cc2ccc(-c3cnc(Nc4cnn5ccccc45)nc3)cc2F)cc1C(F)(F)F` [Compound P-0037, 2-[2-fluoro-4-[2-(pyrazolo[1,5-a]pyridin-3-ylamino)pyrimidin-5-yl]phenyl]-N-[6-methoxy-5-(trifluoromethyl)-3-pyridyl]acetamide], in assay [1], the GI50 was 0.0001 to 10 µM. The IC50 in assay [2] was 0.0001 to 10 µM.
Consider `COc1ncc(NC(=O)Cc2ccc(-c3cnc4[nH]c(Cl)cc4c3)cc2F)cc1C(F)(F)F` [Compound P-0038, 2-[4-(2-chloro-1H-pyrrolo[2,3-b]pyridin-5-yl)-2-fluoro-phenyl]-N-[6-methoxy-5-(trifluoromethyl)-3-pyridyl]acetamide], for which the GI50 in assay [1] was 0.0001 to 10 µM. Moreover, the IC50 in assay [2] is 0.0001 to 10 µM.
Turning to `CC(C)(C)c1ccc(NC(=O)Cc2ccc(-c3cnc4[nH]cc(F)c4c3)cc2F)cn1` [Compound P-0043, N-(6-tert-butyl-3-pyridyl)-2-[2-fluoro-4-(3-fluoro-1H-pyrrolo[2,3-b]pyridin-5-yl)phenyl]acetamide], the GI50 in assay [1] was 0.0001 to 10 µM. The same molecule gave an IC50 in assay [2] of 0.0001 to 10 µM.
For the molecule `O=C(Cc1ccc(-c2cnc3[nH]cc(F)c3c2)cc1F)Nc1cc(Cl)c(C2CC2)cn1` [Compound P-0044, N-(4-chloro-5-cyclopropyl-2-pyridyl)-2-[2-fluoro-4-(3-fluoro-1H-pyrrolo[2,3-b]pyridin-5-yl)phenyl]acetamide], the GI50 in assay [1] lay within 0.0001 to 10 µM. The IC50 in assay [2] lay within 0.0001 to 10 µM.
With `COc1ncc(NC(=O)Cc2cc(F)c(-c3cnc4[nH]c(Cl)cc4c3)cc2F)cc1C(F)(F)F` [Compound P-0045, 2-[4-(2-chloro-1H-pyrrolo[2,3-b]pyridin-5-yl)-2,5-difluoro-phenyl]-N-[6-methoxy-5-(trifluoromethyl)-3-pyridyl]acetamide], the GI50 in assay [1] fell in the range of 0.0001 to 10 µM.
On to `COc1ncc(NC(=O)Cc2ccc(-c3cnc4[nH]c(Cl)cc4c3)c(F)c2)cc1C(F)(F)F` [Compound P-0046, 2-[4-(2-chloro-1H-pyrrolo[2,3-b]pyridin-5-yl)-3-fluoro-phenyl]-N-[6-methoxy-5-(trifluoromethyl)-3-pyridyl]acetamide], for which the GI50 in assay [1] lay within 0.0001 to 10 µM.
Consider `COc1ncc(NC(=O)Cc2ccc(-c3cnc4[nH]cc(F)c4c3)c(F)c2)cc1C(F)(F)F` [Compound P-0048, 2-[3-fluoro-4-(3-fluoro-1H-pyrrolo[2,3-b]pyridin-5-yl)phenyl]-N-[6-methoxy-5-(trifluoromethyl)-3-pyridyl]acetamide], for which the GI50 in assay [1] lay within 0.0001 to 10 µM.
As to `COc1ncc(NC(=O)Cc2cc(F)c(-c3cnc4[nH]cc(F)c4c3)cc2F)cc1C(F)(F)F` [Compound P-0051, 2-[2,5-difluoro-4-(3-fluoro-1H-pyrrolo[2,3-b]pyridin-5-yl)phenyl]-N-[6-methoxy-5-(trifluoromethyl)-3-pyridyl]acetamide], in assay [1], the GI50 fell in the range of 0.0001 to 10 µM.
For the molecule `Cn1cc(Nc2ncc(-c3ccc(CC(=O)NCc4ccc(C(F)(F)F)cn4)cc3)cn2)cn1` [Compound P-0162, 2-[4-[2-[(1-methylpyrazol-4-yl)amino]pyrimidin-5-yl]phenyl]-N-[[5-(trifluoromethyl)-2-pyridyl]methyl]acetamide], the 50% growth inhibitory concentration (GI50) in assay [1] fell in the range of 0.0001 to 10 µM.
The same measure, in the same setting: as for `Cn1cnc(Nc2ncc(-c3ccc(CC(=O)Nc4cc(C(C)(F)F)ccn4)cc3F)cn2)c1` [Compound P-0171, N-[4-(1,1-difluoroethyl)-2-pyridyl]-2-[3-fluoro-4-[2-[(1-methylimidazol-4-yl)amino]pyrimidin-5-yl]phenyl]acetamide], the figure is 0.0001 to 10 µM.

Broadly, the GI50 is the concentration at which growth is held to half of that of the control. What is called IC50 is the concentration needed to halve the response being measured. The low end stands for inhibition by little substance, the high end for a need for much substance.
